Data: PMC3961306, “Comparison of the Cancer Gene Targeting and Biochemical Selectivities of All Targeted Kinase Inhibitors Approved for Clinical Use” (PLoS ONE, 2014)

What was measured:
Assay in all cases: Kinase profiling in a biochemical assay panel (mobility shift assays and ELISA), %-inhibition at 1 μM; selectivity entropy
[1] = biological target: T1, panel of more than 300 wild-type and mutant kinases (313 kinase panel) (Homo sapiens, UniProt O14757)
T1 sequence (O14757 1-476): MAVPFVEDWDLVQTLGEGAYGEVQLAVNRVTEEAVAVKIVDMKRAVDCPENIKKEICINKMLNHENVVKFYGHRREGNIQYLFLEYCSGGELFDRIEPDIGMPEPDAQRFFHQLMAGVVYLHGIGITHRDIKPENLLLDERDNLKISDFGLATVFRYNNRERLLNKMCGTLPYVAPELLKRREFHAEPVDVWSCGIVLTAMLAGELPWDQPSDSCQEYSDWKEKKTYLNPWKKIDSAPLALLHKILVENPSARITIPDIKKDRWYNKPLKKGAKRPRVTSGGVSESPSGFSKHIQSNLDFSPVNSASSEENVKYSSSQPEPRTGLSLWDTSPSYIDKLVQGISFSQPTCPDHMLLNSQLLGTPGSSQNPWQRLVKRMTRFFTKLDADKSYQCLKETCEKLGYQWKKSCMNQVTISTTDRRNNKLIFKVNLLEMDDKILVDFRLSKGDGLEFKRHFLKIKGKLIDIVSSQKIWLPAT

[2] = biological target: panel of more than 300 wild-type and mutant kinases (313 kinase panel) (Homo sapiens, UniProt P07949, M918T)
[3] = biological target: panel of more than 300 wild-type and mutant kinases (313 kinase panel) (Homo sapiens, UniProt P07949, Y791F)
[4] = biological target: T2, panel of more than 300 wild-type and mutant kinases (313 kinase panel) (Homo sapiens, UniProt Q02156)
T2 sequence (Q02156 1-737): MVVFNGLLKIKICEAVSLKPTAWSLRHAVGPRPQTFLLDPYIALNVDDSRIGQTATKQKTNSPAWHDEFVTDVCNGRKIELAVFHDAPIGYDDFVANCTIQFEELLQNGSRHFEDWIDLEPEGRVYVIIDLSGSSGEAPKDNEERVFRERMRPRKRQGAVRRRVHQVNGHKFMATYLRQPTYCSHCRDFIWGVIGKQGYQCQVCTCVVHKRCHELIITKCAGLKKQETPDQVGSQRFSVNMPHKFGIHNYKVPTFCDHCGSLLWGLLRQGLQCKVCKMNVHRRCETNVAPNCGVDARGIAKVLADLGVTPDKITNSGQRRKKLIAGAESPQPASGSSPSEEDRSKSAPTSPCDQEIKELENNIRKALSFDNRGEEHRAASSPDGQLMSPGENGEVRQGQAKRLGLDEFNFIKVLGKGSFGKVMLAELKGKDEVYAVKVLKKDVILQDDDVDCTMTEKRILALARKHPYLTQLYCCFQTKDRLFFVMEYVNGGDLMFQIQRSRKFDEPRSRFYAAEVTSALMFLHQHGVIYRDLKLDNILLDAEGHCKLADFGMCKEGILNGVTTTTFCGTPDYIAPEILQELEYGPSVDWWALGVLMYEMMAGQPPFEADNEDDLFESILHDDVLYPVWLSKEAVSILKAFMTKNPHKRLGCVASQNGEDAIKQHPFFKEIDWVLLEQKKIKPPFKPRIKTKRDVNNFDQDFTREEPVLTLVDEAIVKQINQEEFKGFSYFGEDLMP

[5] = biological target: T3, panel of more than 300 wild-type and mutant kinases (313 kinase panel) (Homo sapiens, UniProt Q96PF2)
T3 sequence (Q96PF2 1-358): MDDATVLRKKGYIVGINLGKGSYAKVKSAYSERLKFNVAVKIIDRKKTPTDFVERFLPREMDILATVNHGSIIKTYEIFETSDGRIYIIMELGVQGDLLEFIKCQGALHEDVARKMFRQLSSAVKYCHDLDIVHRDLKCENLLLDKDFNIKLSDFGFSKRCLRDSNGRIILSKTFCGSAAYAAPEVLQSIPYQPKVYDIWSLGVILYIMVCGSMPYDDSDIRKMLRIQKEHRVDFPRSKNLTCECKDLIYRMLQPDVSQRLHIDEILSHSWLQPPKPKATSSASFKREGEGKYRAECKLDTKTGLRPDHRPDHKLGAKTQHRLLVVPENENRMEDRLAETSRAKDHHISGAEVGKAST

[6] = biological target: T4, panel of more than 300 wild-type and mutant kinases (313 kinase panel) (Homo sapiens, UniProt Q9NRA0)
T4 sequence (Q9NRA0 1-654): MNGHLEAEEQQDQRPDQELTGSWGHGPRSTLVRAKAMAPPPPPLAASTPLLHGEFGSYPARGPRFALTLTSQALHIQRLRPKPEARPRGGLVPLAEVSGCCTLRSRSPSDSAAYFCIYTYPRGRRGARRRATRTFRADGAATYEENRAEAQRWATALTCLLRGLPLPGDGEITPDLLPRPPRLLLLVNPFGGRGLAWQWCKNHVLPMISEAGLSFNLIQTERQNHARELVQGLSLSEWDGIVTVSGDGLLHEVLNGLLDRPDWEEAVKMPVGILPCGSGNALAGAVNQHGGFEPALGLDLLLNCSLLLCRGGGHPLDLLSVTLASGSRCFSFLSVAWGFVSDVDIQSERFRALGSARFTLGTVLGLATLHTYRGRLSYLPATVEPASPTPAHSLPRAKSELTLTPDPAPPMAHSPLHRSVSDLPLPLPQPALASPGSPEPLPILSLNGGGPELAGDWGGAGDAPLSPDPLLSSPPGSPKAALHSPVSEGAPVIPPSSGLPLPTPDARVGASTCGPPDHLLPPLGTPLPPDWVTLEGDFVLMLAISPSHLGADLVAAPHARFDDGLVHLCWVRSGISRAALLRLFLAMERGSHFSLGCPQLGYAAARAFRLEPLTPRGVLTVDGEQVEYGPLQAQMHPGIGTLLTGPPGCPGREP

panel of more than 300 wild-type and mutant kinases (313 kinase panel) (Homo sapiens, UniProt P07949, M918T), sequence (P07949 29-1114 M918T): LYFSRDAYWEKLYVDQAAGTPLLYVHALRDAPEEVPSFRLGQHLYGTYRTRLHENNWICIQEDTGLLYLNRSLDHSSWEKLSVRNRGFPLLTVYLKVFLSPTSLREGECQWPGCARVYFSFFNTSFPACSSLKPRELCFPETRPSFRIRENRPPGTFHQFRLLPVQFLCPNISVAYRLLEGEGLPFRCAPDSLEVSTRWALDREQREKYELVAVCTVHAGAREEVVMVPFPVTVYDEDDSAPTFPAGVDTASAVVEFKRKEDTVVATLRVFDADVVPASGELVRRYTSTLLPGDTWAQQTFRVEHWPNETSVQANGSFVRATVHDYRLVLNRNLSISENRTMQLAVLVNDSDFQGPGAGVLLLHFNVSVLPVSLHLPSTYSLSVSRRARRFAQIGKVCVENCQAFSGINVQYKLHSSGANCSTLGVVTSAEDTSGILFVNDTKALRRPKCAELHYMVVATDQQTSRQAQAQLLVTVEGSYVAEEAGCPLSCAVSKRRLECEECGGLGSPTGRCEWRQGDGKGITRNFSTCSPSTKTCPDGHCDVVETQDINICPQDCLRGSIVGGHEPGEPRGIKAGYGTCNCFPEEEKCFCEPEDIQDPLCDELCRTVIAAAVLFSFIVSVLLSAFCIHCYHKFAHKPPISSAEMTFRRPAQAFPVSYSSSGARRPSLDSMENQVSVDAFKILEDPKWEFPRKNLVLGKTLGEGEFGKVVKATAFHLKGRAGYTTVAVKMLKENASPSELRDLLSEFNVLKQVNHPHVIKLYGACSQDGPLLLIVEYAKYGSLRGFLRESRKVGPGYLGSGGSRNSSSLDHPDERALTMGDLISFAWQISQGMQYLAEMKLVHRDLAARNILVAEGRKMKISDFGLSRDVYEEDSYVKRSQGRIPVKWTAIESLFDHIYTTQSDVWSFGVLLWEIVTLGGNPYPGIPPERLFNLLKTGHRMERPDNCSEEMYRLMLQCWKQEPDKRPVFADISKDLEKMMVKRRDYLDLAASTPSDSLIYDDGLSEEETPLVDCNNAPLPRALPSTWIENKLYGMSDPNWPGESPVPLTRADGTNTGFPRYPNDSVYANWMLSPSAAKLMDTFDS
panel of more than 300 wild-type and mutant kinases (313 kinase panel) (Homo sapiens, UniProt P07949, Y791F), sequence (P07949 29-1114 Y791F): as the sequence (P07949 29-1114 M918T) above, with Y763F, T890M counted along it

Structure (SMILES) | %-inhibition, CHK1 ([1]; kinase CHK1, 1 μM compound) | %-inhibition of RET(M918T) ([2]; kinase RET(M918T), 1 μM) | %-inhibition of RET(Y791F) ([3]; kinase RET(Y791F), 1 μM) | %-inhibition of PKCε ([4]; kinase PKCε, 1 μM) | %-inhibition of TSSK2 ([5]; kinase TSSK2, 1 μM) | %-inhibition of SPHK2 ([6]; kinase SPHK2, 1 μM) | %-inhibition, CHK1 ([1]; 1 µM) | %-inhibition of RET(M918T) ([2]; 1 µM) | %-inhibition of RET(Y791F) ([3]; 1 µM) | %-inhibition of PKCε ([4]; 1 µM) | %-inhibition of TSSK2 ([5]; 1 µM) | %-inhibition of SPHK2 ([6]; 1 µM)
CO[C@H]1C[C@@H]2CC[C@@H](C)[C@@](O)(O2)C(=O)C(=O)N2CCCC[C@H]2C(=O)O[C@H]([C@H](C)C[C@@H]2CC[C@@H](OCCO)[C@H](OC)C2)CC(=O)[C@H](C)/C=C(\C)[C@@H](O)[C@@H](OC)C(=O)[C@H](C)C[C@H](C)/C=C/C=C/C=C/1C [everolimus] | 4% | -4.61% | -3.57% | -2.79% | -11% | 1.25% |  |  |  |  |  | 
CC(=O)Nc1cccc(-n2c(=O)n(C3CC3)c(=O)c3c(Nc4ccc(I)cc4F)n(C)c(=O)c(C)c32)c1 [trametinib] | -0.719% | -1.41% | -1.71% | 6% | -1.73% | -14% |  |  |  |  |  | 
CN(C)C/C=C/C(=O)Nc1cc2c(Nc3ccc(F)c(Cl)c3)ncnc2cc1O[C@H]1CCOC1 [afatinib] |  |  |  |  | 2% | -10% |  |  |  |  |  | 
O=S(=O)(c1cccc2cnccc12)N1CCCNCC1 [fasudil] | -11% |  | 1% | -43% | -0.28% | -21% |  |  |  |  |  | 
N#CC[C@H](C1CCCC1)n1cc(-c2ncnc3[nH]ccc23)cn1 [ruxolitinib] | 4.66% |  |  | -2.79% | -10% | 6% |  |  |  |  |  | 
COc1cc2nccc(Oc3ccc(NC(=O)C4(C(=O)Nc5ccc(F)cc5)CC4)cc3)c2cc1OC [cabozantinib] | 4.42% |  |  | 3% | 0.418% | 2% |  |  |  |  |  | 
CC(C)(C)c1nc(-c2cccc(NS(=O)(=O)c3c(F)cccc3F)c2F)c(-c2ccnc(N)n2)s1 [dabrafenib] |  | 37% | 36% | 5% | -1.73% | -14% |  |  |  |  |  | 
C[C@@H](Oc1cc(-c2cnn(C3CCNCC3)c2)cnc1N)c1c(Cl)ccc(F)c1Cl [crizotinib] | 10% |  |  | -7% | 0.896% | 8% |  |  |  |  |  | 
CCCS(=O)(=O)Nc1ccc(F)c(C(=O)c2c[nH]c3ncc(-c4ccc(Cl)cc4)cc23)c1F [vemurafenib] | 4% | 11% | 30% | -8% | -11% | 8% |  |  |  |  |  | 
COc1cc2c(Nc3ccc(Br)cc3F)ncnc2cc1OCC1CCN(C)CC1 [vandetanib] | 27% |  |  | -4% | -9% | 5.7% |  |  |  |  |  | 
C#Cc1cccc(Nc2ncnc3cc(OCCOC)c(OCCOC)cc23)c1 [erlotinib] |  |  |  |  |  |  | 14% | 67% | 70% | 0.598% | 2% | -2.22%
CNC(=O)c1cc(Oc2ccc(NC(=O)Nc3ccc(Cl)c(C(F)(F)F)c3)c(F)c2)ccn1 [regorafenib] | -3% |  |  | -8% | -11% | -3.2% |  | 102% | 102% |  |  | 
Cc1ccc(C(=O)Nc2ccc(CN3CCN(C)CC3)c(C(F)(F)F)c2)cc1C#Cc1cnc2cccnn12 [ponatinib] | 3.23% | 101% | 102% | 12% | -8% | 11% |  |  |  |  |  | 
Cc1ccc(Nc2nccc(N(C)c3ccc4c(C)n(C)nc4c3)n2)cc1S(N)(=O)=O [pazopanib] | -7% | 86% | 94% | -5.38% | -2.46% | 4% |  |  |  |  |  | 
CS(=O)(=O)CCNCc1ccc(-c2ccc3ncnc(Nc4ccc(OCc5cccc(F)c5)c(Cl)c4)c3c2)o1 [lapatinib] | 12% |  |  |  | -7.54% | -4% |  | -4.37% | -5% |  |  | 
